{"source": "paper PMC6415263", "about": "“Proteins as Nano-Carriers for Bioactive Compounds. The Case of 7S and 11S Soy Globulins and Folic Acid Complexation” (Polymers, 2018)", "key": {"[1]": {"molecular_target": "T1, 7S globulin (β-conglycinin)", "T1 construct": "gene CG-1; native 7S fraction from defatted soybean flour (Nagano method), lyophilized; mixed trimers of alpha, alpha' and beta; 150-200 kDa; minor gamma-conglycinin", "test": "intrinsic fluorescence quenching, modified double logarithm model", "assay_type": "binding, Glycine max", "conditions": "Trizma buffer pH 7.0, I = 0.05 M, 25 °C; excitation 280 nm; protein 5 μM, FA 0-20 μM (methods section prints mM)", "from_the_text": "intrinsic fluorescence quenching, modified double logarithm model on 7S globulin (β-conglycinin)"}, "[2]": {"molecular_target": "T2, 11S globulin (glycinin)", "T2 construct": "gene GY1; native 11S fraction from defatted soybean flour (Nagano method), lyophilized; hexamer of non-identical subunits, each acidic A and basic B polypeptide joined by disulfide; 300-380 kDa", "test": "intrinsic fluorescence quenching, modified double logarithm model", "assay_type": "binding, Glycine max", "conditions": "Trizma buffer pH 7.0, I = 0.05 M, 25 °C; excitation 280 nm; protein 5 μM, FA 0-20 μM (methods section prints mM)", "from_the_text": "intrinsic fluorescence quenching, modified double logarithm model on 11S globulin (glycinin)"}}}
{"compound": "Nc1nc2ncc(CNc3ccc(C(=O)N[C@@H](CCC(=O)O)C(=O)O)cc3)nc2c(=O)[nH]1", "note": "[folic acid]", "values": [{"measurement": "Parameters derived from modified double logarithm model / Ka [M^-1]", "setting": "[1]", "result": "4.00 × 10^4"}, {"measurement": "Parameters derived from modified double logarithm model / Ka [M^-1]", "setting": "[2]", "result": "4.36 × 10^4"}]}
